{"source": "patent US8821921B2", "about": "“Vitamin D3 for the transdermal treatment of pain and inflammation” (Anzamed International Limited, priority 2009, dated 2014)", "origin": "cited, not measured here", "tested_on": "diabetic neuropathic pain", "conditions": "daily oral doses, patients with diabetic neuropathy", "data": [{"smiles": "C=C1CC[C@H](O)C/C1=C/C=C1\\CCC[C@]2(C)[C@@H]([C@H](C)CCCC(C)C)CC[C@@H]12", "note": "[vitamin D3, cholecalciferol]", "values": [{"measurement": "diabetic neuropathic pain", "result": "significant reduction"}]}]}
